Test results reported in ChEMBL document CHEMBL4765330, “Synthesis of some steroidal mitocans of nanomolar cytotoxicity acting by apoptosis” (Eur J Med Chem, 2020).

Key:
A-375 [1] = assay: Induction of apoptosis in human A375 cells assessed as apoptotic cells after 48 hrs by annexin V-FITC and propidium iodide staining based flow cytometric analysis; assay type: functional
in vitro [2] = conditions: mouse, NIH3T3 cells versus HT29 cells
Description: Selectivity index, ratio of IC50 for mouse NIH3T3 cells to IC50 for human HT29 cells incubated for 72 hrs by SRB assay

A2780 [3] = assay: Cell cycle arrest in human A2780 cells assessed as accumulation at G2/M phase after 48 hrs by PI staining based flow cytometric analysis (reference value: 11.25 %); assay type: functional
A2780 [4] = assay: Cell cycle arrest in human A2780 cells assessed as accumulation at G1 phase after 48 hrs by PI staining based flow cytometric analysis (reference value: 54.53 %); assay type: functional
HT-29 = assay: Cytotoxicity against human HT29 cells assessed as reduction in cell viability incubated for 72 hrs by SRB assay; assay type: functional, cell-based
in vitro [5] = conditions: mouse, NIH3T3 cells versus FaDu cells
Description: Selectivity index, ratio of IC50 for mouse NIH3T3 cells to IC50 for human FaDu cells incubated for 72 hrs by SRB assay

A2780 [6] = assay: Cell cycle arrest in human A2780 cells assessed as accumulation at S phase after 48 hrs by PI staining based flow cytometric analysis (reference value: 34.22 %); assay type: functional
in vitro [7] = conditions: mouse, NIH3T3 cells versus A2780 cells
Description: Selectivity index, ratio of IC50 for mouse NIH3T3 cells to IC50 for human A2780 cells incubated for 72 hrs by SRB assay

MCF7 = assay: Cytotoxicity against human MCF7 cells assessed as reduction in cell viability incubated for 72 hrs by SRB assay; assay type: functional, cell-based
A-375 [8] = assay: Induction of apoptosis in human A375 cells assessed as necrotic cells after 48 hrs by annexin V-FITC and propidium iodide staining based flow cytometric analysis; assay type: functional
in vitro [9] = conditions: mouse, NIH3T3 cells versus MCF7 cells
Description: Selectivity index, ratio of IC50 for mouse NIH3T3 cells to IC50 for human MCF7 cells incubated for 72 hrs by SRB assay

A-375 [10] = assay: Induction of apoptosis in human A375 cells assessed as late apoptotic cells after 48 hrs by annexin V-FITC and propidium iodide staining based flow cytometric analysis; assay type: functional
A-375 [11] = assay: Cytotoxicity against human A375 cells assessed as reduction in cell viability incubated for 72 hrs by SRB assay; assay type: functional, cell-based
[12] = Selectivity index, ratio of IC50 for mouse NIH3T3 cells to IC50 for human A375 cells incubated for 72 hrs by SRB assay; assay type: toxicity; conditions: NIH3T3 cells versus A375 cells, read-out: Ratio IC50
A2780 [13] = assay: Cell cycle arrest in human A2780 cells assessed as apoptotic cells after 48 hrs by PI staining based flow cytometric analysis (reference value: 0.48 %); assay type: functional
NIH3T3 = assay: Cytotoxicity against mouse NIH3T3 cells assessed as reduction in cell viability incubated for 72 hrs by SRB assay; assay type: cell-based
FaDu = assay: Cytotoxicity against human FaDu cells assessed as reduction in cell viability incubated for 72 hrs by SRB assay; assay type: functional, cell-based
A2780 [14] = assay: Cytotoxicity against human A2780 cells assessed as reduction in cell viability incubated for 72 hrs by SRB assay; assay type: functional, cell-based
[15] = Drug uptake in nucleus of human A2780 cells at 0.054 mM incubated for 1 hr with compound and Hoechst 33342 and followed by further incubation with Rhodamine123 for 20 mins by fluorescence microscopic method; assay type: ADME, subcellular; conditions: a2780, 1.333 h, 54 µM, time 80 min
[16] = Drug uptake in mitochondria of human A2780 cells at 0.054 mM incubated for 1 hr with compound and Hoechst 33342 and followed by further incubation with Rhodamine123 for 20 mins by fluorescence microscopic method; assay type: ADME; conditions: a2780, 1.333 h, 54 µM, time 80 min
[17] = Homo sapiens, HT-29, 72 h, read-out: IC50
[18] = Homo sapiens, MCF7, 72 h, read-out: IC50
[19] = Homo sapiens, A-375, 72 h, read-out: IC50
[20] = Mus musculus, NIH3T3, 72 h, read-out: IC50
[21] = Homo sapiens, FaDu, 72 h, read-out: IC50
[22] = Homo sapiens, A2780, 72 h, read-out: IC50

SMILES	IC50 (HT-29; [17])	selectivity ratio at 72 h (in vitro [5])	selectivity ratio at 72 h (in vitro [7])	IC50 (MCF7; [18])	selectivity ratio at 72 h (in vitro [9])	IC50 (A-375 [11]; [19])	selectivity ratio at 72 h [12]	IC50 (NIH3T3; [20])	IC50 (FaDu; [21])	IC50 (A2780 [14]; [22])	other results
CCN(CC)c1ccc2c(-c3ccccc3C(=O)OCC(=O)[C@@]3(O)CC[C@H]4[C@@H]5CCC6=CC(=O)C=C[C@@]6(C)[C@H]5C(=O)C[C@@]43C)c3ccc(=[N+](CC)CC)cc-3oc2c1.[Cl-]	0.6 µM	4.1	5.2	0.2 µM	7.3	0.1 µM	1.8	1.8 µM	0.4 µM	0.3 µM	Activity (A-375 [1]): 48%; selectivity ratio at 72 h (in vitro [2]): 2.9; Activity (A2780 [3]): 0%; Activity (A2780 [4]): 12.78%; Activity (A2780 [6]): 87.22%; Activity (A-375 [8]): 2%; Activity (A-375 [10]): 14%; Activity (A2780 [13]): 37.36%
CCN(CC)c1ccc2c(-c3ccccc3C(=O)O[C@H]3CC[C@H]4[C@@H]5CCC6=CC(=O)CC[C@]6(C)[C@H]5CC[C@]34C)c3ccc(=[N+](CC)CC)cc-3oc2c1.[Cl-]	0.12 µM	1	2.2	0.06 µM	3.1	0.16 µM	1.1	0.2 µM	0.2 µM	0.08 µM	Activity (A-375 [1]): 5%; selectivity ratio at 72 h (in vitro [2]): 1.5; Activity (A2780 [3]): 3.48%; Activity (A2780 [4]): 51.77%; Drug uptake [15]: Not Active; Activity (A2780 [6]): 44.74%; Activity (A-375 [8]): 20%; Drug uptake [16]: Active; Activity (A-375 [10]): 12%; Activity (A2780 [13]): 3.29%
CCN(CC)c1ccc2c(-c3ccccc3C(=O)O[C@H]3CC[C@@]4(C)C(=CC[C@@H]5[C@@H]4CC[C@]4(C)C(c6cccnc6)=CC[C@@H]54)C3)c3ccc(=[N+](CC)CC)cc-3oc2c1	0.2 µM	1.8	1.8	0.2 µM	1.6	0.2 µM	1.7	0.3 µM	0.2 µM	0.1 µM	selectivity ratio at 72 h (in vitro [2]): 1.1
CCN(CC)c1ccc2c(-c3ccccc3C(=O)O[C@H]3CC[C@@]4(C)C(=CC[C@H]5[C@@H]6CC[C@H]([C@H](C)CCCC(C)C)[C@@]6(C)CC[C@@H]54)C3)c3ccc(=[N+](CC)CC)cc-3oc2c1.[Cl-]											IC50 (HT-29; ht-29): Nd(Insoluble); IC50 (MCF7; mcf7): Nd(Insoluble); IC50 (A-375 [11]; a-375): Nd(Insoluble); IC50 (NIH3T3; nih3t3): Nd(Insoluble); IC50 (FaDu; fadu): Nd(Insoluble); IC50 (A2780 [14]; a2780): Nd(Insoluble)
C=C(c1ccc(C(=O)N2CCN(C(=O)c3ccccc3-c3c4ccc(=[N+](CC)CC)cc-4oc4cc(N(CC)CC)ccc34)CC2)cc1)c1cc2c(cc1C)C(C)(C)CCC2(C)C.[Cl-]											IC50 (HT-29; ht-29): Nd(Insoluble); IC50 (MCF7; mcf7): Nd(Insoluble); IC50 (A-375 [11]; a-375): Nd(Insoluble); IC50 (NIH3T3; nih3t3): Nd(Insoluble); IC50 (FaDu; fadu): Nd(Insoluble); IC50 (A2780 [14]; a2780): Nd(Insoluble)
C[C@]12CC[C@H](O)C=C1CC[C@@H]1[C@@H]2CC[C@]2(C)C(c3cccnc3)=CC[C@@H]12											IC50 (HT-29; ht-29): Nd(Insoluble); IC50 (MCF7; mcf7): Nd(Insoluble); IC50 (A-375 [11]; a-375): Nd(Insoluble); IC50 (NIH3T3; nih3t3): Nd(Insoluble); IC50 (FaDu; fadu): Nd(Insoluble); IC50 (A2780 [14]; a2780): Nd(Insoluble)
CCN(CC)c1ccc2c(-c3ccccc3C(=O)N3CCNCC3)c3ccc(=[N+](CC)CC)cc-3oc2c1	> 30 µM		1.1	17.8 µM		> 30 µM		> 30 µM	> 30 µM	26.4 µM	
C=C(c1ccc(C(=O)O)cc1)c1cc2c(cc1C)C(C)(C)CCC2(C)C [BEXAROTENE]	> 30 µM	0.6	0.6	10.6 µM	1.8	28.4 µM	0.7	18.7 µM	29.8 µM	26.5 µM	
COc1cccc2c1C(=O)c1c(O)c3c(c(O)c1C2=O)C[C@@](O)(C(=O)CO)C[C@@H]3O[C@H]1C[C@H](N)[C@H](O)[C@H](C)O1 [DOXORUBICIN]	0.9 µM							0.4 µM		0.01 µM	
C[C@]12C=CC(=O)C=C1CC[C@@H]1[C@@H]2C(=O)C[C@@]2(C)[C@H]1CC[C@]2(O)C(=O)CO [PREDNISONE]	> 30 µM			> 30 µM		> 30 µM		> 30 µM	> 30 µM		
CN[C@@H]1C[C@H]2O[C@@](C)([C@@H]1OC)n1c3ccccc3c3c4c(c5c6ccccc6n2c5c31)C(=O)NC4 [STAUROSPORINE]								0.008 µM			
